Data reported in ChEMBL document CHEMBL1141727, “Isolation and cytotoxic evaluation of marine sponge-derived norterpene peroxides” (J Nat Prod, 1998).

What was measured:
Type in all cases: functional
CCRF-CEM = assay: Growth inhibition of human CCRF-CEM cells
HL-60(TB) = assay: Growth inhibition of human HL-60(TB) cells
K562 = assay: Growth inhibition of human K562 cells
MOLT-4 = assay: Growth inhibition of human MOLT4 cells
[1] = Growth inhibition of human […] cells
SR = assay: Growth inhibition of human SR cells
A549 = assay: Growth inhibition of human A549 cells
EKVX = assay: Growth inhibition of human EKVX cells
HOP-62 = assay: Growth inhibition of human HOP62 cells
HOP-92 = assay: Growth inhibition of human HOP92 cells
NCI-H226 = assay: Growth inhibition of human NCI-H226 cells
NCI-H23 = assay: Growth inhibition of human NCI-H23 cells
NCI-H322M = assay: Growth inhibition of human NCI-H322M cells
NCI-H460 = assay: Growth inhibition of human NCI-H460 cells
NCI-H522 = assay: Growth inhibition of human NCI-H522 cells
COLO 205 = assay: Growth inhibition of human COLO205 cells
HCC 2998 = assay: Growth inhibition of human HCC2998 cells
HCT-116 = assay: Growth inhibition of human HCT116 cells
HCT-15 = assay: Growth inhibition of human HCT15 cells
HT-29 = assay: Growth inhibition of human HT-29 cells
KM12 = assay: Growth inhibition of human KM12 cells
SW-620 = assay: Growth inhibition of human SW620 cells
SF-268 = assay: Growth inhibition of human SF268 cells
SF-295 = assay: Growth inhibition of human SF295 cells
SF-539 = assay: Growth inhibition of human SF539 cells
SNB-19 = assay: Growth inhibition of human SNB19 cells
SNB-75 = assay: Growth inhibition of human SNB75 cells
U-251 = assay: Growth inhibition of human U251 cells
LOX IMVI = assay: Growth inhibition of human LOXIMVI cells
Malme-3M = assay: Growth inhibition of human MALME-3M cells
M14 = assay: Growth inhibition of human M14 cells
SK-MEL-2 = assay: Growth inhibition of human SK-MEL-2 cells
SK-MEL-28 = assay: Growth inhibition of human SK-MEL-28 cells
SK-MEL-5 = assay: Growth inhibition of human SK-MEL-5 cells
UACC-257 = assay: Growth inhibition of human UACC257 cells
UACC-62 = assay: Growth inhibition of human UACC62 cells
IGROV-1 = assay: Growth inhibition of human IGROV1 cells
OVCAR-3 = assay: Growth inhibition of human OVCAR-3 cells
OVCAR-4 = assay: Growth inhibition of human OVCAR4 cells
OVCAR-5 = assay: Growth inhibition of human OVCAR5 cells
OVCAR-8 = assay: Growth inhibition of human OVCAR8 cells
SK-OV-3 = assay: Growth inhibition of human SKOV3 cells
786-0 = assay: Growth inhibition of human 786-0 cells
A498 = assay: Growth inhibition of human A498 cells
ACHN = assay: Growth inhibition of human ACHN cells
CAKI-1 = assay: Growth inhibition of human Caki1 cells
RXF 393 = assay: Growth inhibition of human […] cells
SN12C = assay: Growth inhibition of human SN12C cells
TK-10 = assay: Growth inhibition of human TK10 cells
UO-31 = assay: Growth inhibition of human UO31 cells
PC-3 = assay: Growth inhibition of human PC3 cells
DU-145 = assay: Growth inhibition of human DU145 cells
MCF7 = assay: Growth inhibition of human MCF7 cells
[2] = Growth inhibition of human MCF7/ADR resistant cells; settings: NCI/ADR-RES
MDA-MB-231 = assay: Growth inhibition of human MDA-MB-231 cells
[3] = Growth inhibition of human Hs 578T cells
MDA-MB-435 = assay: Growth inhibition of human MDA-MB-435 cells
MDA-N = assay: Growth inhibition of human MDA-N cells
BT-549 = assay: Growth inhibition of human BT549 cells
T47D = assay: Growth inhibition of human T47D cells
L1210 = assay: Growth inhibition of mouse L1210 cells assessed as zone units at 50 ug/disk by disk diffusion agar colony formation assay
P388 = assay: Growth inhibition of mouse P388 cells assessed as zone units at 50 ug/disk by disk diffusion agar colony formation assay
MC-38 = assay: Growth inhibition of mouse C38 cells assessed as zone units at 50 ug/disk by disk diffusion agar colony formation assay
[4] = Growth inhibition of mouse M17/ADR cells assessed as zone units at 50 ug/disk by disk diffusion agar colony formation assay
[5] = Growth inhibition of human H125 cells assessed as zone units at 50 ug/disk by disk diffusion agar colony formation assay
PO3 = assay: Growth inhibition of mouse PO3 cells assessed as zone units at 50 ug/disk by disk diffusion agar colony formation assay
[6] = Growth inhibition of human H116 cells assessed as zone units at 50 ug/disk by disk diffusion agar colony formation assay

C=C1CCCC(C)(C)C1CC[C@]1(C)CC[C@H]([C@@H](C)C(=O)OC)OO1 (stereo partly specified) [NUAPAPUIN B]
GI50 (CCRF-CEM): 1.27 µM | GI50 (HL-60(TB)): 1.6 µM | GI50 (K562): 6.38 µM | GI50 (MOLT-4): 7.04 µM | GI50 [1]: 4.04 µM | GI50 (SR): 2.17 µM | GI50 (A549): 0.64 µM | GI50 (EKVX): 7.9 µM | GI50 (HOP-62): 0.71 µM | GI50 (HOP-92): 0.76 µM | GI50 (NCI-H226): 6.17 µM | GI50 (NCI-H23): 3.54 µM | GI50 (NCI-H322M): 6.9 µM | GI50 (NCI-H460): 0.91 µM | GI50 (NCI-H522): 3.05 µM | GI50 (COLO 205): 4.54 µM | GI50 (HCC 2998): 3.68 µM | GI50 (HCT-116): 8.14 µM | GI50 (HCT-15): 13.1 µM | GI50 (HT-29): 0.38 µM | GI50 (KM12): 0.4 µM | GI50 (SW-620): 7.53 µM | GI50 (SF-268): 3.19 µM | GI50 (SF-295): 4.42 µM | GI50 (SF-539): 6.25 µM | GI50 (SNB-19): 5.47 µM | GI50 (SNB-75): 2.67 µM | GI50 (U-251): 2.91 µM | GI50 (LOX IMVI): 0.47 µM | GI50 (Malme-3M): 21 µM | GI50 (M14): 6.43 µM | GI50 (SK-MEL-2): 8.28 µM | GI50 (SK-MEL-28): 20.6 µM | GI50 (SK-MEL-5): 3.94 µM | GI50 (UACC-257): 16.3 µM | GI50 (UACC-62): 4.13 µM | GI50 (IGROV-1): 0.5 µM | GI50 (OVCAR-3): 21.8 µM | GI50 (OVCAR-4): 4.01 µM | GI50 (OVCAR-5): 4.76 µM | GI50 (OVCAR-8): 5.76 µM | GI50 (SK-OV-3): 4.4 µM | GI50 (786-0): 0.27 µM | GI50 (A498): 4.92 µM | GI50 (ACHN): 0.48 µM | GI50 (CAKI-1): 0.32 µM | GI50 (RXF 393): 2.62 µM | GI50 (SN12C): 3.73 µM | GI50 (TK-10): 4.21 µM | GI50 (UO-31): 0.52 µM | GI50 (PC-3): 3.63 µM | GI50 (DU-145): 3.67 µM | GI50 (MCF7): 18.4 µM | GI50 [2]: 5.67 µM | GI50 (MDA-MB-231): 757 µM | GI50 [3]: 4.6 µM | GI50 (MDA-MB-435): 4.34 µM | GI50 (MDA-N): 3.54 µM | GI50 (BT-549): 4.95 µM | GI50 (T47D): 2.94 µM | Activity (L1210): 180 Zone units | Activity (P388): 180 Zone units | Activity (MC-38): 300 Zone units | Activity [4]: 100 Zone units | Activity [5]: 200 Zone units

C=C1CCC[C@H]2[C@](C)(CC[C@]3(C)CC[C@@H]([C@@H](C)C(=O)O)OO3)[C@@H](C)CC[C@]12C [SIGMOSCEPTRELLIN C]
GI50 (HL-60(TB)): 0.14 µM | GI50 (MOLT-4): 0.84 µM | GI50 (A549): 0.94 µM | GI50 (EKVX): 1.09 µM | GI50 (HOP-62): 1.04 µM | GI50 (HOP-92): 1.08 µM | GI50 (NCI-H226): > 5 µM | GI50 (NCI-H23): 1 µM | GI50 (NCI-H322M): 4.19 µM | GI50 (NCI-H460): 0.6 µM | GI50 (COLO 205): 0.97 µM | GI50 (HCC 2998): 1.03 µM | GI50 (HCT-116): 1.06 µM | GI50 (HCT-15): 1.16 µM | GI50 (HT-29): 1.03 µM | GI50 (KM12): 0.95 µM | GI50 (SW-620): 1.16 µM | GI50 (SF-268): 1.04 µM | GI50 (SF-295): 0.82 µM | GI50 (SF-539): 1.07 µM | GI50 (SNB-19): > 5 µM | GI50 (SNB-75): 0.83 µM | GI50 (U-251): 0.93 µM | GI50 (LOX IMVI): 0.16 µM | GI50 (M14): > 5 µM | GI50 (SK-MEL-2): > 5 µM | GI50 (SK-MEL-28): 2.37 µM | GI50 (SK-MEL-5): 1.94 µM | GI50 (UACC-257): > 5 µM | GI50 (IGROV-1): 0.1 µM | GI50 (OVCAR-3): 0.99 µM | GI50 (OVCAR-4): 0.95 µM | GI50 (OVCAR-5): 2.72 µM | GI50 (OVCAR-8): 2.53 µM | GI50 (SK-OV-3): 0.97 µM | GI50 (786-0): 0.5 µM | GI50 (A498): 1.59 µM | GI50 (ACHN): 0.92 µM | GI50 (CAKI-1): 0.6 µM | GI50 (RXF 393): 2.95 µM | GI50 (SN12C): 0.78 µM | GI50 (TK-10): 1.49 µM | GI50 (UO-31): 0.9 µM | GI50 (PC-3): 1.77 µM | GI50 (MCF7): 3.79 µM | GI50 [2]: 0.77 µM | GI50 (MDA-MB-231): 1.81 µM | GI50 (MDA-MB-435): 2.06 µM | GI50 (MDA-N): 0.91 µM | GI50 (BT-549): 0.96 µM | GI50 (T47D): 0.86 µM | Activity (L1210): 220 Zone units | Activity (P388): 220 Zone units | Activity (PO3): 190 Zone units | Activity [4]: 220 Zone units | Activity [6]: 230 Zone units
